Assay results reported in US11731946B2, “Broad spectrum antivirulence, anti-persistence compounds” (priority 2017, dated 2023).
Where “and” joins values, the source holds several entries; their conditions need not be identical. Identical values can stand only once. Entries after “also recorded” stand apart in the source; their conditions may differ. Like-named read-outs stand apart in the source and are kept apart here.

What was measured:
MvfR regulon [1] = assay: Quantification of pyocyanin (OD520nm of chloroform-extracted cultures); format: cell-based, P. aeruginosa; conditions: for activity at 50 µM: read-out: pyocyanin @50 uM (%), compound at 50 uM; for activity at 1 µM: read-out: pyocyanin @1 uM (%), compound at 1 uM; for activity at 10 µM: read-out: pyocyanin @10 uM (%), compound at 10 uM
[2] = Pharmacokinetics in mouse plasma and lung after single subcutaneous injection; format: in vivo, mice; conditions: for stability in vivo (serum concentration): 10 mg/kg subcutaneous, over 24 h; for pharmacokinetics (in words): mouse, in vivo
Experimental: FIGS. 1F-1G show pharmacokinetics measured in mouse plasma (FIG. 1F) and lung (FIG. 1G) following a single subcutaneous injection of Compounds 53, 54, or 72 at 10 mg/kg.

PA14 [3] = assay: Antibiotic tolerance/persister (AT/P) cell formation, meropenem, CFU plating; format: cell-based, P. aeruginosa; conditions: 50 μM compound
Experimental: Wild type (PA14) P. aeruginosa was grown in liquid culture with or without Compound 54 and treated with meropenem according to published procedures (see e.g., Starkey et al, PLoS Pathog. 2014, 10:e1004321). Data are expressed as fraction of original culture surviving antibiotic treatment.
AT/P efficacy of compounds using CFU plating was assessed by growning over-night, cultures diluted 1:100 in triplicate in fresh LB medium in the presence or absence of inhibitor, and re-grown to an OD600 of 2.0 while shaking under aeration at 37° C. Before the antibiotic treatment, aliquots were plated to obtain reference colony counts. […] At 24-h and 48-h time points, the number of surviving bacteria were assessed by plating. The survival fraction of AT/P cells was calculated by dividing the number of surviving bacteria by the number of live bacteria that were present before the antibiotic treatment (reference datum) and expressed as a mean (±SD) of at least three replicate experiments. Using the same CFU plating assay, the efficacy of all compounds identified will be tested against additional antibiotic classes: b-lactams (ceftazidime, cefepime and imipenem), quinolones (ciprofloxacin, moxifloxacin, and levofloxacin), and aminoglycosides (gentamicin and tobramycicn).

[4] = test system: Caco2 intestinal epithelial cells; assay: Survival of Caco2 cells after compound exposure; format: cell-based; conditions: 25 μM, 3 hours exposure
MvfR = molecular target: T1, MvfR (Pseudomonas aeruginosa, UniProt Q9I4X0); assay: Surface plasmon resonance (SPR) binding to purified MvfR co-inducer binding domain; parameters: species or system P. aeruginosa; conditions: for Signal Intensity Rmax / binding intensity relative to parent Compound 1 / Kd: SPR
T1 construct: made in house
Experimental: Compounds identified to interfere with MvfR were confirmed for the direct physical interaction with this protein. Using SPR, the percentage of compound's binding to the purified MvfR protein was analyzed and used to determine the binding parameters (KD, kon and koff)—thus determining the kinetic of interaction with MvfR.
The recombinant MvfR co-inducer binding domain was purified using Ni-NTA chromatography, as previously reported (see e.g., Xiao et al, Microbiology, 2006, 152:1679-1686; Starkey et al, PLoS Pathog. 2014, 10:e1004321; and Kefala et al, Acta. Crystallogr. Sect. F. Struct. Biol. Cryst. Commun. 2012, 68:695-697). The purified protein was immobilized with the amine coupling method at a target level of 5000 RU on Chip. SPR was performed according to previously reported procedures (see e.g., Starkey et al, PLoS Pathog. 2014, 10:e1004321; Maura et al, ACS Chemical Biology, 2017, 12:1435-1443; and Kitao et al, MBIO, in press). […] Table 3 lists the steady-state KD data measured by SPR.

MvfR regulon [5] = assay: pqsA gene expression (pqsA-GFP reporter); format: cell-based, P. aeruginosa; conditions: for IC50 / activity at 10 µM / activity at 50 µM: Pseudomonas aeruginosa; for IC50: read-out: IC50 pqsA (μM); for activity at 10 µM: read-out: pqsA @10 uM (%), compound at 10 uM; for activity at 50 µM: read-out: pqsA @50 uM (%), compound at 50 uM
MvfR regulon [6] = assay: LC/MS quantification of HAQs and related molecules in bacterial culture supernatants; format: cell-based, P. aeruginosa; conditions: Pseudomonas aeruginosa
[7] = test system: Pseudomonas aeruginosa MDR clinical isolates; assay: Pyocyanin production in MDR clinical isolates; format: cell-based; conditions: 10 μM
Experimental: Percentage of pyocyanin production is presented in presence of 10 μM of D57 or D88 compounds. Tukey's multiple comparisons test p<0.0001.
Pyocyanin levels were determined by measuring OD520nm of chloroform-extracted cultures.

PA14 [8] = assay: Mouse thigh infection model (PA14); format: in vivo, mice
Experimental: Mice were infected with 5×10^5 and 5×10^6 PA14 cells for the thigh and lung infection model respectively. FIGS. 5A-5C: Thigh model: treatment was initiated […] and repeated at 4, 8, 12 and 18 hours. FIG. 5A: monotherapy with Compound 72, 10 mg/kg (P<0.05 Mann Whitney test); FIG. 5B-5C. Combinatorial: Compound 72 (10 mg/kg) plus Ciprofloxacin 1 mg/kg (subtherapeutic dose) (FIG. 5B: P<0.05; Figure C: P>0.05; Mann Whitney test). CFUs were assessed 24 h post-infection in the thigh (FIG. 5A), liver (FIG. 5B) and spleen (FIG. 5C). Compound 72 was administered subcutaneously and ciprofloxacin intraperitoneally (IP). […] Mice were infected with 5×10^6 PA14 cells lung infection model. Compound 54 (10 mg/kg) plus ciprofloxacin 1 mg/kg treatment (subtherapeutic dose) was initiated at 2 h post-infection and repeated at 6, 12, and 18 h post-infection. CFUs were assessed 24 h post-infection in the lung. Compound 54 was administered subcutaneously and ciprofloxacin intraperitoneally (IP).
Thigh infection studies were performed using Compounds 54 and 72.

[9] = Pseudomonas aeruginosa, read-out: IC50 pyocyanin (μM)
[10] = Steady State Binding Affinity KD (μM), steady state
[11] = Steady State Binding Affinity KD [M], steady state
[12] = mean KD value, mean over the compounds named
[13] = read-out: IC50 AA (increase; μM)
[14] = compound at 10 uM, listed as D62
[15] = compound at 50 uM, listed as D62

T1 sequence (Q9I4X0 91-332): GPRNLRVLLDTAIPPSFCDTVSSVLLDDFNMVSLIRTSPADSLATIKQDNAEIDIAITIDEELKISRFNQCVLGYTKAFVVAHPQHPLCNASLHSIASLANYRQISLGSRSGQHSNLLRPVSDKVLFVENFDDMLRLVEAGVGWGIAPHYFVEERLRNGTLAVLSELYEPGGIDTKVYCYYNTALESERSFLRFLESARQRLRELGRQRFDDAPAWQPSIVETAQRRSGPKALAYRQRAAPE

| Structure (SMILES) | IC50 (MvfR regulon [1]; [9]) [µM] | activity at 50 µM (MvfR regulon [1]; Pseudomonas aeruginosa) [%] | toxicity to Caco2 (survival) [4] | Signal Intensity Rmax (MvfR) | binding intensity relative to parent Compound 1 (MvfR) [times] | Kd (MvfR; [10]) [µM] | Kd (MvfR; [11]) [µM] | Kd (MvfR; [12]) | IC50 (MvfR regulon [5]) [µM] | activity at 10 µM (MvfR regulon [5]) [%] | activity at 50 µM (MvfR regulon [5]) [%] | activity at 50 µM (MvfR regulon [6]; read-out: 2-AA @50 uM) [%] | activity at 50 µM (MvfR regulon [6]; read-out: DHQ @50 uM) [%] | activity at 50 µM (MvfR regulon [6]; read-out: HHQ @50 uM (%)) [%] | activity at 50 µM (MvfR regulon [6]; read-out: HQNO @50 uM (%)) [%] | activity at 50 µM (MvfR regulon [6]; read-out: PQS @50 uM (%)) [%] | activity at 1 µM (MvfR regulon [1]; Pseudomonas aeruginosa) [%] | activity at 10 µM (MvfR regulon [1]; Pseudomonas aeruginosa) [%] | activity on pyocyanin production in MDR clinical isolates [7] | also measured |
| --- | --- | --- | --- | --- | --- | --- | --- | --- | --- | --- | --- | --- | --- | --- | --- | --- | --- | --- | --- | --- |
| N#Cc1ccc(NC(=O)CC(=O)Nc2ccc(Cl)cc2)cc1 [Compound 53] | 2.4 | 6.23 | not toxic | 26.52 | 40 | 0.244 | 0.244 | ~0.25 µM and 0.25 µM | 1.25 | 1.55 | 7.97 | 5.87 | 10.3 | 1.63 | 13.9 | 8.37 | – | – | – | stability in vivo (serum concentration) [2]: stable in vivo; stability in vivo (serum concentration) ([2]; listed as D41): highly stable in vivo; pharmacokinetics (in words) [2]: promising pharmacokinetics; inhibition of persistence (PA14 [3]): inhibit persistence; binding to MvfR (in words) (MvfR; FIG. 1B): high affinity; IC50 (MvfR regulon [6]; PA14, read-out: IC50 2-AA (μM)): 5.6 µM; IC50 (MvfR regulon [6]; PA14, read-out: IC50 DHQ (μM)): 9.1 µM; IC50 (MvfR regulon [6]; PA14, read-out: IC50 HHQ (μM)): 10.3 µM; IC50 (MvfR regulon [6]; PA14, read-out: IC50 PQS (μM)): 8.3 µM; activity at 50 µM (MvfR regulon [6]; read-out: AA @50 uM): 739%; IC50 (MvfR regulon [6]; [13]): 14.5 µM; IC50 (MvfR regulon [6]; read-out: IC50 HQNO (μM)): 7.3 µM |
| N#Cc1ccc(NC(=O)CC(=O)Nc2ccc(Oc3ccccc3)cc2)cc1 [Compound 72] | 0.891 | 6.06 | not toxic | 34.24 | – | 1.09 | 1.09 | 0.25 µM | 0.52 | 1.08 | 3.7 | – | – | – | – | – | 14 | 16.8 | – | stability in vivo (serum concentration) [2]: stable in vivo; half-life ([2]; mouse lung, 10 mg/kg SC, read-out: lung half-life (converted)): 71.4 min; Tlast ([2]; mouse plasma, 10 mg/kg SC): ~6 h; half-life ([2]; mouse plasma, 10 mg/kg SC, read-out: plasma half-life (converted)): 67.8 min; pharmacokinetics (in words) [2]: promising pharmacokinetics; activity on pyocyanin production in MDR clinical isolates ([7]; listed as D57): highly active; also recorded: confirmed; bacterial CFUs at the site of infection (PA14 [8]; 10 mg/kg SC, CFUs 24 h post-infection): decrease bacterial dissemination and titer at the infection site; also recorded: reduced bacterial CFUs; potentiation of ciprofloxacin in reducing PA cells dissemination in spleen and liver (PA14 [8]; 10 mg/kg compound SC plus ciprofloxacin 1 mg/kg IP): potentiated ciprofloxacin efficacy |
| N#Cc1ccc(NC(=O)CC(=O)Nc2ccc(Oc3ccccc3)cc2)c(O)c1 [Compound 78] | 0.618 | 5.9 | – | 34.69 | – | 0.494 | 0.494 | – | 0.938 | 9.63 | 7.3 | – | – | – | – | – | 8.8 | 5.73 | highly active | – |
| O=C(CC(=O)Nc1ccc([N+](=O)[O-])cc1O)Nc1ccc(Oc2ccccc2)cc1 [Compound 76] | 0.368 | 5.6 | – | 36.46 | – | 0.478 | 0.478 | – | 0.42 | 10 | 6.7 | – | – | – | – | – | 10.5 | 6.17 | highly active | – |
| N#Cc1ccc(NC(=O)CC(=O)Nc2ccc(I)cc2)cc1 [Compound 71] | 1.63 | 13.3 | not toxic | 30.74 | 40 | 0.259 | 0.259 | ~0.25 µM | 0.72 | 13.3 | 6.03 | – | – | – | – | – | – | – | – | – |
| N#Cc1ccc(NC(=O)CC(=O)Nc2ccc(C#N)cc2)cc1 [Compound 57] | 1.37 | 8.07 | – | 27.05 | 40 | 0.286 | 0.286 | ~0.25 µM | 0.94 | – | 8.3 | 20 | 31.9 | 18.1 | 36 | 22.3 | – | – | – | activity at 50 µM (MvfR regulon [6]; read-out: AA @50 uM): 531% |
| N#Cc1ccc(NC(=O)CC(=O)Nc2ccc(Oc3ccccc3)cc2)c(N)c1 [Compound 77] | – | – | – | – | – | – | – | – | – | – | – | – | – | – | – | – | – | – | highly active | pyocyanin @1 uM (%) (MvfR regulon [1]; compound at 1 uM, listed as D62): 57.50%; pyocyanin @10 uM (%) (MvfR regulon [1]; [14]): 6.17%; pyocyanin @50 uM (%) (MvfR regulon [1]; [15]): 7.30%; pqsA @10 uM (%) (MvfR regulon [5]; [14]): 1.51%; pqsA @50 uM (%) (MvfR regulon [5]; [15]): 6.20% |
| N#Cc1ccc(NC(=O)CC(=O)Nc2ccc([N+](=O)[O-])cc2)cc1 [Compound 65] | – | 3.4 | not toxic | 29.51 | – | 0.399 | 0.399 | – | 2.54 | – | 9.5 | 6.94 | 12.3 | 2.88 | 18.4 | 6.32 | 80.3 | 29.7 | – | IC50 (MvfR regulon [1]; read-out: IC50 pyocyanin): 4.48 µM; IC50 (MvfR regulon [6]; PA14, read-out: IC50 2-AA (μM)): 8.95 µM; IC50 (MvfR regulon [6]; PA14, read-out: IC50 DHQ (μM)): 11.3 µM; IC50 (MvfR regulon [6]; PA14, read-out: IC50 HHQ (μM)): 21.2 µM; IC50 (MvfR regulon [6]; PA14, read-out: IC50 PQS (μM)): 23 µM; IC50 (MvfR regulon [6]; [13]): 34 µM; IC50 (MvfR regulon [6]; read-out: IC50 HQNO (μM)): 23.3 µM |
